Data taken from ChEMBL document CHEMBL5143551, “Synthesis of sp3-rich chiral bicyclo[3.3.1]nonanes for chemical space expansion and study of biological activities” (Bioorg Med Chem, 2022).
Active and inactive are the calls of the source. No cut-off for these calls is given here.

Key:
HeLa [1] = assay: Inhibition of HIF-1-alpha protein expression in human HeLa cells at 100 uM by Western blot analysis; format: functional, cell-based
HeLa [2] = assay: Inhibition of HIF-1 transcriptional signaling in human HeLa cells assessed as reduction in CA9 protein expression at 100 uM under hypoxia conditions by Western blot analysis; format: cell-based
HeLa [3] = assay: Inhibition of HIF-1-alpha mRNA expression in human HeLa cells under hypoxia conditions at 100 uM by qPCR analysis; format: functional, cell-based
[4] = Inhibition of HIF-1 transcriptional activity in human HeLa cells transfected with hypoxia response element-dependent luciferase reporter gene under hypoxic conditions; format: cell-based
HeLa [5] = assay: Growth inhibition of human HeLa cells by MTT assay; format: functional, cell-based

SMILES	inhibition (HeLa [1])	inhibition (HeLa [2])	inhibition (HeLa [3])	IC50 ([4]; Homo sapiens, HeLa)	IC50 (HeLa [5]; Homo sapiens, HeLa)	IC50 ([4]; hela)	IC50 (HeLa [5]; hela)
CC(C)CN[C@@H]1C2C[C@](OC(=O)Cc3ccccc3)(CC[C@H]2OC(=O)CC(C)C)[C@H]2O[C@@H]12 (stereo in doubt; 16f) [listing 1 of 2 here]	Active	Active	Active	–	–	–	–
CC(C)CN[C@@H]1C2C[C@](OC(=O)Cc3ccccc3)(CC[C@H]2OC(=O)Cc2ccccc2)[C@H]2O[C@@H]12	–	–	–	31.7 µM	> 100 µM	–	–
CC(C)CN[C@@H]1C2C[C@](OC(=O)Cc3ccccc3)(CC[C@H]2OC(=O)CC(C)C)[C@H]2O[C@@H]12 (stereo in doubt; 16f) [listing 2 of 2 here]	–	–	–	–	–	19 µM	76.1 µM
CC(C)CC(=O)O[C@@H]1CC[C@@]2(OC(=O)CC(C)C)CC1[C@@H](NCc1ccccc1)[C@@H]1O[C@@H]12	–	–	–	24.7 µM	9.4 µM	–	–
CC(C)CN[C@@H]1C2C[C@](OC(=O)CC(C)C)(CC[C@H]2OC(=O)Cc2ccccc2)[C@H]2O[C@@H]12	Active	Active	–	20.4 µM	89.1 µM	–	–
CC(C)CC(=O)O[C@]12CC[C@@H](OC(=O)Cc3ccccc3)C(C1)[C@@H](NCc1ccccc1)[C@@H]1O[C@@H]12 (mixture of isomers)	–	–	–	17.2 µM	3.5 µM	–	–
CC(C)CC(=O)O[C@@H]1CC[C@@]2(OC(=O)Cc3ccccc3)CC1[C@@H](NCc1ccccc1)[C@@H]1O[C@@H]12	–	–	–	31 µM	39.5 µM	–	–
CC(C)CN[C@@H]1C2C[C@](OC(=O)Cc3ccccc3)(CC[C@H]2OC(=O)CC(C)C)[C@H]2O[C@@H]12 (stereo in doubt)	–	–	–	–	–	46.4 µM	32.3 µM
O=C(Cc1ccccc1)O[C@@H]1CC[C@@]2(OC(=O)Cc3ccccc3)CC1[C@@H](NCc1ccccc1)[C@@H]1O[C@@H]12 (mixture of isomers)	–	–	–	19.5 µM	14.2 µM	–	–
CC(C)CN[C@@H]1C2C[C@](OC(=O)CC(C)C)(CC[C@H]2OC(=O)CC(C)C)[C@H]2O[C@@H]12	Active	Active	–	21.7 µM	79.6 µM	–	–
